This is an account of results in PMC9104108, “Purification and Identification of Novel Myeloperoxidase Inhibitory Antioxidant Peptides from Tuna (Thunnas albacares) Protein Hydrolysates” (Molecules, 2022).

Where no end group is shown, it is not given here.

In experiment [1] the target is T1, MPO (Homo sapiens, UniProt P05164).
T1 construct: purchased Abnova, Taiwan
T1 sequence (P05164 49-745): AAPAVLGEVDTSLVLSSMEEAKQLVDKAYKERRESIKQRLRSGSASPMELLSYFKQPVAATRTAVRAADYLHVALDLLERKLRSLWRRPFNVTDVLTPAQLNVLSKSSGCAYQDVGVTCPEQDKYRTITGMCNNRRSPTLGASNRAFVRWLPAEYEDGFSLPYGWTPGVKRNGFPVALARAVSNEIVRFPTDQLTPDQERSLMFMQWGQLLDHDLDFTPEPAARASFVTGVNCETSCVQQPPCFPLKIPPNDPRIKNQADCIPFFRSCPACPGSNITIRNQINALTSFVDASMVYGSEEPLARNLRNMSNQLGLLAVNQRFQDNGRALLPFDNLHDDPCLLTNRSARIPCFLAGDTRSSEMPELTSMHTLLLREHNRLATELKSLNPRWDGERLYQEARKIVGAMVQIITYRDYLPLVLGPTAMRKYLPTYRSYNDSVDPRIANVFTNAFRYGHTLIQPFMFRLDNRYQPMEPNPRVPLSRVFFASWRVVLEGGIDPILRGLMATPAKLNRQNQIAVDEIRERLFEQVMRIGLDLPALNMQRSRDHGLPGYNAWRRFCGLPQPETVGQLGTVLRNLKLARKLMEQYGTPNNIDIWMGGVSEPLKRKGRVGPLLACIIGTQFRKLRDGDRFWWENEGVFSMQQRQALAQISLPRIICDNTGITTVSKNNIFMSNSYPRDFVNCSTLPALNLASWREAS
Briefly: MPO inhibitor screening assay kit, peroxidation assay. It counts as biochemical. Conditions: ADHP substrate, synthesized peptides. An excerpt: (§1) The inhibitory effect of peptides on MPO was estimated using an MPO inhibitor screening assay kit (Abnova, Taiwan), which was used to assess in both the peroxidation and chlorination activities of MPO. Peroxidation assay utilizes the peroxidase component of MPO. During the reaction, hydrogen peroxide reacts with 10-acetyl-3,7-dihydroxyphenoxazine (ADHP) to yield resorufin, a highly fluorescent compound. The chlorination assay utilizes non-fluorescent 2-[6-(4-aminophenoxy)-3-oxo-3H-xanthen-9-yl]-benzoic acid (APF), which is selectively cleaved by hypochlorite to produce fluorescein. The 4-aminobenzhydrazide was used as positive control. The MPO inhibitory activity was determined according to the kit instructions.

Experiment [2] deals with T1, MPO. Briefly: MPO inhibitor screening assay kit, chlorination assay. It counts as biochemical. Conditions: APF substrate, synthesized peptides.
Description: as §1

As a reminder, the IC50 is the concentration that inhibits the measured activity by half. A high value points to lower potency.

ACGSDGK [ACGSDGK]: the 50% inhibitory concentration (IC50) on MPO [1] was found to be 17.9 µM; against MPO [2] it was 32.3 µM.
Regarding DASHGHSG, the 50% inhibitory concentration (IC50) at MPO [1] and on MPO [2] was more than 500 µM each time.
In the case of DVSDLDAD, the half-inhibitory concentration (IC50) was more than 500 µM against MPO [1] and 296 µM against MPO [2].
For GDAFDKA [GDAFDKA] the same measures were more than 500 µM and more than 500 µM.
On the same counts, the results for GELALKD [GELALKD] are more than 500 µM and 122 µM.
On the same counts, the results for KFCSGHA [KFCSGHA] are 40.3 µM and 108 µM.
